74 compounds from PubChem BioAssay AID179 (DTP/NCI, 2004) can be followed below.

Activity calls are given as the source filed them.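 How the source made its calls: active means compounds giving half or more protection of infected cells from virus-caused growth loss, again on retest; inactive means the rest.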 Where only a bound is given, the exact number is not on record here.

The test system of this assay is CEM cells HIV-1 protection, formazan growth assay. The experiment in a line: NCI AIDS Antiviral Assay. Particulars: for IC50: measured here: growth of uninfected CEM cells. In short, it runs like this: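 Soluble formazan readout of cell growth; CEM cells ± HIV-1; 5 drug concs. ≥50% protection → retest; ≥50% again = moderately active; reproducible 100% = confirmed active.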

On to `CCO[C@@H]1OC(=O)[C@H]2C(c3ccc(Cl)cc3Cl)=NO[C@@H]12`, for which the EC50 is greater than 22.9 µM and the IC50 was greater than 22.9 µM.

As to `O=C(NNC(=O)c1ccncc1)c1ccncc1`, the EC50 was greater than 200 µM and the concentration for half-maximal inhibition (IC50) was greater than 200 µM.

For `COc1nc(C(Cl)(Cl)Cl)c(Cl)c(OC)c1Cl`, the EC50 is greater than 41.7 µM and the IC50 was greater than 41.7 µM.

With `C/C(=N\NC(=O)CC(=O)N(C(=O)c1ccccc1Cl)c1ccc(C)cc1)c1ccc(Cl)cc1`, the EC50 is greater than 14.1 µM and the IC50 was greater than 14.1 µM.

Turning to `CC(C)N(C=C(C#N)C#N)C(C)C`, the EC50 was greater than 200 µM and the IC50 is greater than 200 µM.

As for `O=C(O)CCSCCCCCCCCCCSCCC(=O)O`, the EC50 is greater than 74.1 µM and the IC50 was greater than 74.1 µM.

In the case of `COC(=O)CCC1CCc2c(OC)ccc(OC)c2C1=O` (configuration not stated), the outcome was inactive.

Turning to `COc1ccc2c(c1)CCC1C3(CCCC21C)OCCO3` (configuration not stated), the EC50 is greater than 100 µM and the IC50 was 20.4 µM.

Turning to `CC(C)(C)C(=O)OCOP(=O)(O)OCC1CCC(N2C=CC(N)NC2=O)O1` (configuration not stated), the concentration for a half-maximal effect (EC50) is 0.0468 µM and the IC50 was 16.2 µM.

Turning to `CC(C)O/C=C1\CCc2ccccc2C1=O`, the EC50 is greater than 200 µM and the IC50 turned out to be 36.3 µM.

Consider `N#Cc1ccc(C2NN=CC23C(=O)c2ccccc2OC3c2ccccc2)cc1` (configuration not stated), for which the EC50 is greater than 200 µM and the IC50 was 64.6 µM.

For the compound `COc1ccc(-c2cc(=O)cc(C(N)=O)o2)cc1`, the EC50 is greater than 200 µM and the IC50 is greater than 200 µM.

Regarding `CO[C@@]12CC(=O)/C(=C(O)\C=C\c3ccccc3)C(=O)[C@]1(OC)Cc1ccccc1O2`, the EC50 is greater than 17.8 µM and the IC50 stood at 15.5 µM.

`C[CH2][Pb]([CH2]C)([CH2]C)[O]C(=O)COc1ccc(Cl)cc1Cl`: the EC50 is greater than 2 µM and the half-maximal inhibitory concentration (IC50) was determined as 0.575 µM.

As to `N#CC1=C(S)N(C2OC(CO)C(O)C(O)C2O)C(c2ccccc2)=CC1c1ccco1` (configuration not stated), the EC50 was greater than 200 µM and the IC50 worked out at 42.7 µM.

Consider `CSC1=N/C(=C\c2ccco2)C(=O)N1CN1CCCCC1`, for which the EC50 is greater than 200 µM and the concentration for half-maximal inhibition (IC50) was 102 µM.

As for `CCCCN(C(=O)NCCC)S(=O)(=O)c1ccc(Cl)cc1`, the result was inactive.

In the case of `COc1cc(OCc2ccc3nc(OC)c(OC)nc3c2)cc(OC)c1OC`, the EC50 was greater than 200 µM and the IC50 was greater than 200 µM.

Consider `O=C(O)/C=C\CCCCC(=O)O`, for which the EC50 was greater than 1450 µM and the half-maximal inhibitory concentration (IC50) was greater than 1450 µM.

For `C#CCOCn1cnc2c(=O)[nH]cnc21`, the EC50 was greater than 331 µM and the IC50 is greater than 331 µM.

For the compound `CNc1ccc(C=C2C=CC=C2)cc1`, the EC50 was greater than 74.1 µM and the IC50 came to 39.8 µM.

`c1cnn(CN(Cn2cccn2)Cn2cccn2)c1`: the result was inactive.

In the case of `CCOC(=O)c1[nH]c2c(cc(C(=O)C(F)(F)F)c3ccccc32)c1C(F)(F)F`, the EC50 is greater than 17.8 µM and the concentration for half-maximal inhibition (IC50) was greater than 17.8 µM.

Regarding `NC1=NNC2(C(=O)N1)c1ccccc1-c1ccccc12`, the EC50 is greater than 200 µM and the half-inhibitory concentration (IC50) came out at 46.8 µM.

On to `COC1=C(C2(O)C(=O)N(C)c3ccccc32)C(=O)C(OC)=C(C2(O)C(=O)N(C)c3ccccc32)C1=O` (configuration not stated), for which the EC50 was greater than 53.7 µM.

As for `COP(=O)(OC)C(NC=O)P(=O)(OC)OC`, the EC50 is greater than 200 µM and the half-maximal inhibitory concentration (IC50) is greater than 200 µM.

In the case of `CN(CC#N)[C@H]1CCC[C@]1(O)C#C[Si](C)(C)c1ccccc1`, the EC50 is greater than 16.6 µM and the half-inhibitory concentration (IC50) is greater than 16.6 µM.

Take `C/C(=C\C(=O)OCCCCCCCC(=O)Nc1c2sscc-2[nH]c1=O)C(O)[C@@H]1OCC(C/C=C/[C@@H](C)[C@H](C)O)[C@@H](O)[C@H]1O` (some centres not stated): the EC50 was greater than 200 µM and the 50% inhibitory concentration (IC50) was 3.16 µM.

For the compound `CN(C)/N=C1\C=C2CC[C@H](O[Si](C)(C)C(C)(C)C)[C@@]2(C)CC1`, the EC50 was greater than 200 µM and the half-maximal inhibitory concentration (IC50) came out at 12.3 µM.

Regarding `Cc1ccc(N=N/C(=N/NC(=O)c2cc(Cl)ccc2O)c2ccc(N(CCC#N)CCC#N)cc2C)cc1`, the EC50 was greater than 200 µM and the 50% inhibitory concentration (IC50) was 10.7 µM.

Consider `CCOC(=O)NP(=O)(Nc1ccccc1)Nc1ccccc1`, for which the EC50 was greater than 200 µM and the IC50 was greater than 200 µM.

In the case of `O=S(=O)(O)c1cc(Nc2ccnc3ccccc23)c2c(S(=O)(=O)O)cc(S(=O)(=O)O)cc2c1`, the EC50 is greater than 200 µM and the IC50 is greater than 200 µM.

For the compound `CCOc1ccc(NC(=S)N/C=C(/C#N)C(N)=O)cc1`, the EC50 was greater than 200 µM and the IC50 came out at 158 µM.

For `CCCCN=C(NC#N)N(Cc1ccccc1)Cc1ccccc1`, the EC50 is greater than 100 µM and the 50% inhibitory concentration (IC50) worked out at 22.9 µM.

With `O=C(Nc1ccc(/C=C/c2ccc(NC(=O)c3ccccc3O)cc2S(=O)(=O)O)c(S(=O)(=O)O)c1)c1ccccc1O`, the half-maximal effective concentration (EC50) was 115 µM and the IC50 is greater than 200 µM.

On to `Cc1ccc(S(=O)(=O)N2CCN(C=S)CC2)cc1`, for which the EC50 is greater than 91.2 µM and the concentration for half-maximal inhibition (IC50) is greater than 91.2 µM.

For `CCN(CC)c1ccc(NC(=S)NN(C)C)cc1`, the EC50 was greater than 200 µM and the IC50 came to 52.5 µM.

Turning to `O=C(O)CCC12CC[C@]3(O)OC(=O)[C@H](C[C@@H]1C(=O)O)C23` (some centres not stated), the outcome was inactive.

For `COc1ccc(N2CCOCC2)cc1`, the result was inactive.

`Nc1ccccc1-c1ccn[nH]1`: the EC50 is greater than 200 µM and the IC50 is greater than 200 µM.

As for `CC1(C)C2CCC3CC(CCC#N)CCC3C21C#N` (configuration not stated), the EC50 was greater than 200 µM and the IC50 is 95.5 µM.

For the compound `O=C(Nc1ccccc1SC(/C=C/NNC1=NC(c2ccccc2)C(c2ccccc2)=NN1)c1ccccc1)c1ccc(Cl)cc1Cl` (configuration not stated), the EC50 was greater than 10.7 µM and the IC50 is greater than 10.7 µM.

In the case of `Clc1ccc(C=Nc2ccc(Oc3ccc(Cl)cc3)c(Cl)c2)cc1`, the EC50 is greater than 200 µM and the 50% inhibitory concentration (IC50) worked out at 33.1 µM.

For the compound `COC1CC(C)(N)C(O)C(C)O1` (configuration not stated), the EC50 was greater than 200 µM and the concentration for half-maximal inhibition (IC50) is greater than 200 µM.

As for `Nc1ccn(C2OC(CO)C(O)C2O)c(=O)n1` (configuration not stated), the EC50 is greater than 2 µM and the half-maximal inhibitory concentration (IC50) was found to be 0.00275 µM.

Consider `c1cncc(CN2CCCC2)c1`, for which the result was inactive.

Turning to `O=[N+]([O-])c1ccc(SSc2ccc([N+](=O)[O-])cn2)nc1`, the EC50 is greater than 200 µM and the IC50 amounted to 9.12 µM.

For the compound `CCOC(=O)N1N(c2ccccc2)C(=O)C1(c1ccccc1)c1ccccc1`, the EC50 was greater than 200 µM and the 50% inhibitory concentration (IC50) was found to be 135 µM.

Consider `Cn1c(=O)nc2n(-c3ccc(Cl)cc3)c3ccc(Cl)cc3nc-2c1=O`, for which the outcome was inactive.

Turning to `Cc1nc2ccc(N=Nc3c(O)ccc4ccccc34)cc2[nH]1`, the EC50 was greater than 61.7 µM and the IC50 was 55 µM.

On to `COc1ccc(Nc2nc3c(N)cc(C(F)(F)F)cc3nc2-c2ccccc2)cc1`, for which the EC50 was greater than 12.6 µM and the IC50 was greater than 12.6 µM.

For `O=C(O)CCC1COc2ccccc2O1` (configuration not stated), the EC50 was greater than 200 µM and the IC50 was greater than 200 µM.

On to `Cc1cc([N+](=O)[O-])c(S(=O)(=O)c2ccccc2)c([N+](=O)[O-])c1`, for which the EC50 was greater than 22.4 µM and the concentration for half-maximal inhibition (IC50) worked out at 3.63 µM.

Turning to `Nc1ccc2c(c1)C1=NNC(=O)CC1C2` (configuration not stated), the outcome was inactive.

With `CCc1ccccc1NNc1cc(=O)[nH]c(=O)[nH]1`, the EC50 was greater than 200 µM and the IC50 came out at 27.5 µM.

For `O=c1[nH]c2cnn(-c3ccccc3)c2c(=O)n1OS(=O)(=O)c1ccccc1`, the EC50 is greater than 200 µM and the half-maximal inhibitory concentration (IC50) is greater than 200 µM.

Turning to `CCOP12(OCC)NC(=O)OC1(C(F)(F)F)c1ccccc1O2` (configuration not stated), the EC50 was greater than 141 µM and the IC50 is greater than 141 µM.

For `CC(C)(C)OC(=O)c1ccc(NCC2=C(Br)C(=O)C=CC2=O)cc1`, the EC50 is greater than 200 µM and the IC50 came out at 11.5 µM.

Turning to `Cc1cc(Cl)c2c(c1)C(=O)/C(=C/c1ccc(Cl)cc1)O2`, the EC50 is greater than 200 µM and the IC50 was determined as 15.8 µM.

With `C=C1C(=O)C[C@@]23CCC[C@@]12CC(O)C3` (some centres not stated), the result was inactive.

Take `CC(=O)OCC1OC(N=[N+]=[N-])C(OC(C)=O)C(OC(C)=O)C1OC1OC(COC(C)=O)C(OC(C)=O)C(OC(C)=O)C1OC(C)=O` (configuration not stated): the EC50 was greater than 53.7 µM and the half-inhibitory concentration (IC50) was greater than 53.7 µM.

Consider `Fc1ccc2nncc(SCc3ccccc3)c2c1`, for which the EC50 is greater than 132 µM and the concentration for half-maximal inhibition (IC50) worked out at 19.5 µM.

For the compound `CC(C)(C)Nc1noc(=O)n1C(C)(C)C`, the EC50 was greater than 100 µM and the IC50 is greater than 100 µM.

For `CNc1nc(SC)nc2c1S(=O)(=O)N=CN2`, the EC50 is greater than 263 µM and the IC50 was greater than 263 µM.

As for `CC(C)CNC1=NCC(C)S1` (configuration not stated), the EC50 was greater than 200 µM and the half-maximal inhibitory concentration (IC50) is greater than 200 µM.

Consider `Cc1ccc(NC(=O)CC/C(CC(=O)C(C)(C)C)=N/Nc2nnc(C)n2N)cc1C`, for which the EC50 was greater than 87.1 µM and the concentration for half-maximal inhibition (IC50) was greater than 87.1 µM.

As for `Cc1cc(C)nc(NC(P(=O)(O)O)P(=O)(O)O)n1`, the EC50 is greater than 200 µM and the half-inhibitory concentration (IC50) was greater than 200 µM.

For the compound `O=C(O)C12CCC(CC1=O)C2` (configuration not stated), the EC50 is greater than 200 µM and the 50% inhibitory concentration (IC50) is greater than 200 µM.

Regarding `[O-]c1c2c(nn1-c1ccccc1)c1ccccc1c[n+]2Cc1ccccc1`, the outcome was inactive.

With `CC(=O)NNc1nc(C)c(C(/C=C/c2ccc(/C=C/C(=N\NC(=O)c3ccncc3)c3sc(NNC(C)=O)nc3C)cc2)=N/NC(=O)c2ccncc2)s1`, the EC50 was greater than 13.2 µM and the IC50 was greater than 13.2 µM.

As to `CCCCCCCCCCCCOC1OC(COC(C)=O)C(OC(C)=O)C(OC(C)=O)C1OC(C)=O` (configuration not stated) (tested in a mixture with another compound), the EC50 was greater than 38 µM and the IC50 was 24 µM.

As to `Nc1ccc([As](=O)(O)O)cc1C(=O)O`, the EC50 is greater than 200 µM and the 50% inhibitory concentration (IC50) is greater than 200 µM.

`CCCCCCCCCCCCC1N=C(N)NC2(CCCO2)C1C(=O)OC` (configuration not stated): the EC50 is greater than 200 µM and the 50% inhibitory concentration (IC50) turned out to be 5.75 µM.

Take `COC(=O)c1cc2cc3c(c(O)c2c(=O)o1)O[C@@]1(Oc2c(O)c4c(c(O)c2[C@H]1OC1CC(OC)C(O)C(C)O1)C(=O)C=C(OC)C4=O)[C@H](O)C3` (some centres not stated): the EC50 is greater than 200 µM and the 50% inhibitory concentration (IC50) was determined as 3.31 µM.
